Reference: publication PMC8343220, “The selectivity of α‐adrenoceptor agonists for the human α1A, α1B, and α1D‐adrenoceptors” (Pharmacology Research & Perspectives, 2021)

Assays:
[1] = biological target: T1, human α1D‐adrenoceptor (full length) (Homo sapiens, UniProt P25100); experiment: ^3H‐cAMP accumulation in the presence of 10 μM forskolin, CHO‐α1D cells; type: cell-based; settings: CHO‐α1D cells; for cAMP (in presence of forskolin) Fold increase: fold increase of the forskolin response; for EC50: in presence of forskolin, log values given negative
T1 construct: human α1D‐adrenoceptor (full length) were used; expressed in transfected cells; host or cells: CHO-K1
T1 sequence (P25100 1-572): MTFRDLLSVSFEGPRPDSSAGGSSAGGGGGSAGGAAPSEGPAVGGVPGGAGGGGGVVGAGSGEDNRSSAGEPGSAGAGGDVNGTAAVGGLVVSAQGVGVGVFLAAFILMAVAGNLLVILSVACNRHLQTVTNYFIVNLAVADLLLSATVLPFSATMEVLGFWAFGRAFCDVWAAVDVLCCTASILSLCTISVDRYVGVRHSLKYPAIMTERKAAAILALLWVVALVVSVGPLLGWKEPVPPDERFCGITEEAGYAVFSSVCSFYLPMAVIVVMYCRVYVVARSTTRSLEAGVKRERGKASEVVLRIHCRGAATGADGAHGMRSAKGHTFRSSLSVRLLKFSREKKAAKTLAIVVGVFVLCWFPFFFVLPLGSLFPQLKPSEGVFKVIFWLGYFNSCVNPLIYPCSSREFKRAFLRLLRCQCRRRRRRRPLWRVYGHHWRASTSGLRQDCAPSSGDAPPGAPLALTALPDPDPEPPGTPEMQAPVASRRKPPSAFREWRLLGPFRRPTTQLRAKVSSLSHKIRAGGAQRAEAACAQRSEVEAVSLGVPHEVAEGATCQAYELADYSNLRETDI

[2] = biological target: T1, human α1D‐adrenoceptor (full length); experiment: ERK1/2‐phosphorylation (Surefire Alphascreen), CHO‐α1D cells; type: cell-based; settings: CHO‐α1D cells; for EC50: read-out: ERK1/2‐phosphorylation Log EC50 (converted); for ERK1/2‐phosphorylation % PDBu: maximal response as % of PDBu
[3] = tested on: parental CHO cell line without any transfected receptors; experiment: ERK1/2‐phosphorylation, parent CHO cells without transfected receptors; type: cell-based, Chinese hamster; settings: for Emax at 100 µM: Cricetulus griseus, CHO, read-out: ERK1/2-phosphorylation % PDBu at 100μM
human α1B‐adrenoceptor [4] = biological target: T2, human α1B‐adrenoceptor (Homo sapiens, UniProt P35368); experiment: ^3H‐cAMP accumulation in the presence of 10 μM forskolin, CHO‐α1B cells; type: cell-based; settings: CHO‐α1B cells; for cAMP accumulation (in presence of forskolin) Fold increase: fold increase of the forskolin response; for EC50: in presence of forskolin, read-out: cAMP accumulation (in presence of forskolin) Log EC50 (converted)
T2 construct: expressed in transfected cells; host or cells: CHO-K1
T2 sequence (P35368 1-520): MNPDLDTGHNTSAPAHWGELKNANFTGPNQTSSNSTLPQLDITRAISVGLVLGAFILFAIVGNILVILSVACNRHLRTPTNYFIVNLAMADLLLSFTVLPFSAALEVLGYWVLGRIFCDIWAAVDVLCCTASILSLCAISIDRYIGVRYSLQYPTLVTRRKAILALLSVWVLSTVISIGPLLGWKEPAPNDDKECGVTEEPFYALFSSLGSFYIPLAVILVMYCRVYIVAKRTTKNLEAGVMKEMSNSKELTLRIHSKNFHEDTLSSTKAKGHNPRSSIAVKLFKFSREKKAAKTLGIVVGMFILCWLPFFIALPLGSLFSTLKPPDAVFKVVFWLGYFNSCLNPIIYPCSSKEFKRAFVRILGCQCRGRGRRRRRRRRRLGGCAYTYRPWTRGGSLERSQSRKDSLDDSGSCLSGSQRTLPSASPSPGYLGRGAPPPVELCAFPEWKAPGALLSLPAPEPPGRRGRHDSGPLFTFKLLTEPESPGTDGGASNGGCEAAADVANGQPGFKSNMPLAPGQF

[5] = biological target: T1, human α1D‐adrenoceptor (full length); experiment: ^3H‐prazosin whole‐cell radioligand binding, CHO‐α1D cells; settings: for Kd: CHO‐α1D cells; for Affinity selectivity ratio α1B vs α1D: higher affinity for α1D than α1B
[6] = tested on: parental CHO cell line without any transfected receptors; experiment: Forskolin‐stimulated cAMP accumulation, parent CHO cells without transfected receptors; type: cell-based, Chinese hamster; settings: CHO cells without transfected receptors; in presence of forskolin
human α1B‐adrenoceptor [7] = biological target: T2, human α1B‐adrenoceptor; experiment: Intracellular free calcium mobilization, CHO‐α1B cells; type: cell-based; settings: for EC50: given as log EC50 (negative numbers), read-out: Intracellular calcium release Log EC50 (converted); for Log efficacy ratio KD /EC50: intrinsic efficacy ratio, KD from binding / EC50 calcium; for Intracellular calcium release % ionomycin: maximal response as % of 10 µM ionomycin response
human α1A‐adrenoceptor [8] = biological target: T3, human α1A‐adrenoceptor (Homo sapiens, UniProt P35348); experiment: ERK1/2‐phosphorylation (Surefire Alphascreen), CHO‐α1A cells; type: cell-based; settings: CHO‐α1A cells, ^a bi‐phasic: initial stimulatory part; for EC50: 2–4 min, ^b also active in parent CHO cells, read-out: ERK1/2‐phosphorylation Log EC50 (converted); for ERK1/2‐phosphorylation % PDBu: % of 10 µM PDBu
T3 construct: expressed in transfected cells; host or cells: CHO-K1
T3 sequence (P35348 1-466): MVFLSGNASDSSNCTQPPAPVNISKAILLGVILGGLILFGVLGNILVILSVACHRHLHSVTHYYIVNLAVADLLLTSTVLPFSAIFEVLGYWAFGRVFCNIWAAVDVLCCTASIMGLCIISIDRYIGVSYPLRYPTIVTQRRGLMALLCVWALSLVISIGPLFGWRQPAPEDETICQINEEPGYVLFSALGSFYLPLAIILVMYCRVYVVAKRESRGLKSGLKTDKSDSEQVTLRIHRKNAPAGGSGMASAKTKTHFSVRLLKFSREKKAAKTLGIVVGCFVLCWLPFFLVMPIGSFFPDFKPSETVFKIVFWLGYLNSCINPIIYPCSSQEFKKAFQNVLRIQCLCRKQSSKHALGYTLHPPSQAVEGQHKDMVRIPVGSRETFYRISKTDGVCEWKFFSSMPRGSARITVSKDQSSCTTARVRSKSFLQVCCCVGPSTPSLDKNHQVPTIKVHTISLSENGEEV

human α1B‐adrenoceptor [9] = biological target: T2, human α1B‐adrenoceptor; experiment: ^3H‐prazosin whole‐cell radioligand binding, CHO‐α1B cells
human α1A‐adrenoceptor [10] = biological target: T3, human α1A‐adrenoceptor; experiment: ^3H‐cAMP accumulation in the presence of 10 μM forskolin, CHO‐α1A cells; type: cell-based; settings: CHO‐α1A cells; for EC50: 10 μM forskolin, read-out: cAMP accumulation (in presence of forskolin) Log EC50 (converted); for cAMP accumulation (in presence of forskolin) Fold increase: fold increase of the forskolin response
human α1A‐adrenoceptor [11] = biological target: T3, human α1A‐adrenoceptor; experiment: ^3H‐cAMP accumulation, CHO‐α1A cells; type: cell-based; settings: CHO‐α1A cells; for EC50: 5 h, read-out: cAMP accumulation Log EC50 (converted); for cAMP accumulation % forskolin: % of 10 µM forskolin response
[12] = biological target: T1, human α1D‐adrenoceptor (full length); experiment: ^3H‐cAMP accumulation, CHO‐α1D cells; type: cell-based; settings: cAMP accumulation without forskolin
[13] = biological target: T1, human α1D‐adrenoceptor (full length); experiment: Intracellular free calcium mobilization, CHO‐α1D cells; type: cell-based; settings: CHO‐α1D cells; for Log efficacy ratio KD /EC50: intrinsic efficacy ratio, binding KD / calcium EC50; for EC50: log values given negative, read-out: Intracellular calcium release Log EC50 (converted); for Intracellular calcium release % ionomycin: maximal response as % of 10 µM ionomycin
[14] = 3H‐prazosin binding Log KD, whole‐cell binding (from Table 1), log values given negative
[15] = given as log KD (negative), mean ± SEM, 'early plateau' = specific binding not fully inhibited
[16] = Log KD α1B, ^3H‐prazosin whole cell binding, CHO‐α1B cells, given as log KD (negative), mean ± SEM
[17] = Log KD, ^3H‐prazosin binding, CHO‐α1B cells, whole‐cell binding (from Table 1), given as log KD (negative numbers)

Row | Compound | cAMP (in presence of forskolin) Fold increase [1] | EC50 [1] | EC50 ([2]; log values given negative) | ERK1/2‐phosphorylation % PDBu [2] | cAMP accumulation (in presence of forskolin) Fold increase (human α1B‐adrenoceptor [4]) | EC50 (human α1B‐adrenoceptor [4]) | Kd [5, 14] | Kd [5, 15] | cAMP accumulation (in presence of forskolin) Log EC50 [6] | EC50 (human α1A‐adrenoceptor [8]) | ERK1/2‐phosphorylation % PDBu (human α1A‐adrenoceptor [8]) | EC50 (human α1A‐adrenoceptor [10]) | cAMP accumulation (in presence of forskolin) Fold increase (human α1A‐adrenoceptor [10]) | EC50 (human α1A‐adrenoceptor [11]) | cAMP accumulation % forskolin (human α1A‐adrenoceptor [11]) | cAMP Log EC50 [12] | Log efficacy ratio KD /EC50 [13] | EC50 [13] | Intracellular calcium release % ionomycin [13] | Affinity selectivity ratio α1B vs α1D [5] | further results
1 | CC(CCc1ccc(O)cc1)NCCc1ccc(O)c(O)c1 (stereo not drawn) [Dobutamine] | 1.16 ± 0.06 | 0.309 µM | 0.891 µM | 26.2 ± 7.5% | 1.24 ± 0.04 fold | 2 µM | 4.37 µM | 4.37 µM | No response | 0.0437 µM | 85.5 ± 4.3% | 0.661 µM | 1.98 ± 0.14 fold | 0.871 µM | 11.9 ± 1.6% | No response | 2.26 | 0.024 µM | 10.6 ± 1.8% | – | ERK1/2-phosphorylation % PDBu at 10μM ([3]; CHO cells without transfected receptors, response at 10μM only, EC50 not obtainable, % of PDBu (10μM)): 16.4 ± 5.9%; Agonist (calcium) response in CHO‐α1B cells (human α1B‐adrenoceptor [7]): did not stimulate any measurable; Intracellular calcium release % Ionomycin at 100 µM (human α1B‐adrenoceptor [7]; CHO‐α1B cells, response at 100 µM ligand (no EC50 given), % of ionomycin response): 3.0 ± 1.1%; Kd (human α1B‐adrenoceptor [9]; [16]): 3.63 µM; Kd (human α1B‐adrenoceptor [9]; [17]): 3.63 µM; Affinity selectivity ratio α1B vs α1D (human α1B‐adrenoceptor [9]; left sub‐column: higher affinity for α1B than α1D): 1.2 fold
2 | Clc1ccc2nsnc2c1NC1=NCCN1 [Tizanidine] | – | – | – | No response | 2.01 ± 0.11 fold | 0.182 µM | 3.89 µM | – | No response | 0.0372 µM | 82.1 ± 3.9% | 0.123 µM | 2.36 ± 0.10 fold | 1.66 µM | 65.6 ± 6.5% | – | – | – | – | 11.5 fold | ERK1/2‐phosphorylation Log EC50 ([2]; log values given negative): No response; Emax at 100 µM [3]: 6.7 ± 3.3%; Kd ([5]; Log KD α1D, ^3H‐prazosin whole cell binding, given as log KD (negative), mean ± SEM, 'early plateau' = specific binding not fully inhibited): 3.89 µM; EC50 (human α1B‐adrenoceptor [7]; CHO‐α1B cells): 0.0891 µM; Log efficacy ratio KD /EC50 (human α1B‐adrenoceptor [7]; CHO‐α1B cells): 2.70; Intracellular calcium release % ionomycin (human α1B‐adrenoceptor [7]; CHO‐α1B cells): 48.8 ± 1.8%; Kd (human α1B‐adrenoceptor [9]; [16]): 44.7 µM; Kd (human α1B‐adrenoceptor [9]; [17]): 44.7 µM; Intracellular calcium release % Ionomycin at 100 µM ([13]; response at 100 µM ligand (no EC50 given)): 2.5 ± 0.8%
3 | C[C@H](N)[C@H](O)c1cccc(O)c1 [Metaraminol] | 1.19 ± 0.04 | 0.324 µM | 2.69 µM | 20.5 ± 3.0% | 2.58 ± 0.07 fold | 1.48 µM | 56.2 µM | 56.2 µM | No response | 0.0977 µM | 83.9 ± 4.1% | 0.813 µM | 2.54 ± 0.11 fold | – | – | No response | 1.87 | 0.759 µM | 23.1 ± 3.8% | >17.8 fold | ERK1/2-phosphorylation % PDBu ([3]; CHO cells without transfected receptors, maximal response as % of PDBu (10μM) response, mean ± s.e.m.): No response; ERK1/2-phosphorylation Log EC50 ([3]; CHO cells without transfected receptors, mean ± s.e.m.): No response; Affinity selectivity ratio α1A vs α1D ([5]; higher affinity for α1D than α1A): 1.5 fold; EC50 (human α1B‐adrenoceptor [7]; CHO‐α1B cells): 0.112 µM; Log efficacy ratio KD /EC50 (human α1B‐adrenoceptor [7]; CHO‐α1B cells): >3.95; Intracellular calcium release % ionomycin (human α1B‐adrenoceptor [7]; CHO‐α1B cells): 60.1 ± 3.1%; IC50 (human α1B‐adrenoceptor [9]; CHO‐α1B cells, printed as IC50> log value): > 1000 µM; cAMP accumulation % forskolin at 100 µM (human α1A‐adrenoceptor [11]; response at 100 μM ligand, no EC50 obtained): 122.7 ± 9.8%
4 | N=C(N)NC(=O)Cc1c(Cl)cccc1Cl [Guanfacine] | 1.20 ± 0.7 | 0.229 µM | 6.92 µM | 16.1 ± 4.0% | 2.67 ± 0.18 fold | 0.324 µM | – | 11.7 µM | No response | 0.0347 µM | 87.4 ± 2.3% | 0.155 µM | 2.22 ± 0.05 fold | 2.88 µM | 41.1 ± 2.3% | No response | 0.53 | 3.47 µM | 28.6 ± 2.0% | 11.5 fold | Emax at 100 µM [3]: 2.5 ± 1.7%; EC50 (human α1B‐adrenoceptor [7]; CHO‐α1B cells): 0.0269 µM; Log efficacy ratio KD /EC50 (human α1B‐adrenoceptor [7]; CHO‐α1B cells): 3.70; Intracellular calcium release % ionomycin (human α1B‐adrenoceptor [7]; CHO‐α1B cells): 59.0 ± 2.4%; Kd (human α1B‐adrenoceptor [9]; CHO‐α1B cells, given as log KD (negative), mean ± SEM): 135 µM
